Laboratory results published in PubChem BioAssay AID276 (DTP/NCI, 2004).
Toxic doses and inconclusive results are not listed. Rule for the calls: active = survival T/C of 150% or more; inactive = T/C below 125% in these data.

Tested on: B6C3F1 mice, Lewis lung carcinoma iv, survival T/C
Assay: NCI In Vivo Anticancer Drug Screen. Data for tumor model Lewis Lung Carcinoma (intravenous) in B6C3F1 mice
Conditions: endpoint: median survival time, schedule: Q01DX009 (ip), higher = longer survival
How it was run: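 Transplantable tumor in mice; compound treated vs vehicle controls; read-out survival; value = treated/control (T/C).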

[1] = dose: 6.25 mg/kg/injection, vehicle: saline with Tween-80
[2] = dose: 12.5 mg/kg/injection, vehicle: saline with Tween-80
[3] = dose: 25.0 mg/kg/injection, vehicle: saline with Tween-80
[4] = dose: 50.0 mg/kg/injection, vehicle: saline with Tween-80
[5] = dose: 100.0 mg/kg/injection, vehicle: saline with Tween-80
[6] = dose: 200.0 mg/kg/injection, vehicle: saline with Tween-80

Measured: T/C

CCC1CCCCN1C(=S)N/N=C(\C)c1ccccn1 (centres undefined)
inactive: [1] 101 % of control | [2] 115 % of control | [3] 104 % of control

Cc1oc2c(C)c3oc(=O)cc(C)c3cc2c1CCl
inactive: [2] 103 % of control | [3] 101 % of control

NCCCNCCSP(=O)(O)O
inactive: [2] 98 % of control | [3] 98 % of control | [4] 95 % of control | [5] 106 % of control | [6] 105 % of control

O=NN(CCCl)C(=O)Oc1ccc(OC(=O)N(CCCl)N=O)cc1
inactive: dose: 0.5 mg/kg/injection, vehicle: Klucel (hydroxypropylcellulose) (HPC) 95 % of control | dose: 1.0 mg/kg/injection, vehicle: Klucel (hydroxypropylcellulose) (HPC) 96 % of control | dose: 2.0 mg/kg/injection, vehicle: Klucel (hydroxypropylcellulose) (HPC) 105 % of control | dose: 3.12 mg/kg/injection, vehicle: Klucel (hydroxypropylcellulose) (HPC) 97 % of control | dose: 4.0 mg/kg/injection, vehicle: Klucel (hydroxypropylcellulose) (HPC) 111 % of control

Nc1cc2c3c(cccc3c1)C(=O)N(CCN1CCCC1)C2=O
inactive: dose: 3.12 mg/kg/injection, vehicle: saline with Tween-80 105 % of control | [1] 105 % of control | [2] 105 % of control | [3] 109 % of control

CCOC(=O)c1ccc(NN=NCCF)cc1
inactive: dose: 3.0 mg/kg/injection, vehicle: distilled water + alcohol 98 % of control | dose: 3.12 mg/kg/injection, vehicle: distilled water + Tween-80 104 % of control | dose: 6.0 mg/kg/injection, vehicle: distilled water + alcohol 96 % of control | dose: 6.25 mg/kg/injection, vehicle: distilled water + Tween-80 113 % of control | dose: 12.5 mg/kg/injection, vehicle: distilled water + Tween-80 98 % of control | dose: 12.5 mg/kg/injection, vehicle: distilled water + alcohol 103 % of control | dose: 25.0 mg/kg/injection, vehicle: distilled water + Tween-80 113 % of control | dose: 25.0 mg/kg/injection, vehicle: distilled water + alcohol 101 % of control | dose: 50.0 mg/kg/injection, vehicle: distilled water + alcohol 98 % of control | dose: 100.0 mg/kg/injection, vehicle: distilled water + alcohol 98 % of control

COc1cc2c3c(cccc3c1)C(=O)N(CCN(C)C)C2=O
inactive: dose: 5.0 mg/kg/injection, vehicle: saline with Tween-80 101 % of control | dose: 10.0 mg/kg/injection, vehicle: saline with Tween-80 110 % of control | dose: 20.0 mg/kg/injection, vehicle: saline with Tween-80 122 % of control | dose: 40.0 mg/kg/injection, vehicle: saline with Tween-80 101 % of control | dose: 80.0 mg/kg/injection, vehicle: saline with Tween-80 119 % of control

Cc1ccc(N)c(N)c1
inactive: [3] 96 % of control | [4] 98 % of control | [5] 108 % of control | [6] 103 % of control

COc1cc2c[n+](C)c3c(c2cc1OC)Cc1cc2c(cc1-3)OCO2
inactive: dose: 12.5 mg/kg/injection, vehicle: suspension in saline 97 % of control | dose: 25.0 mg/kg/injection, vehicle: suspension in saline 114 % of control | dose: 50.0 mg/kg/injection, vehicle: suspension in saline 119 % of control

O=S(=O)(SC(S(=O)(=O)c1ccccc1)S(=O)(=O)c1ccccc1)c1ccccc1
inactive: dose: 100.0 mg/kg/injection, vehicle: Klucel (hydroxypropylcellulose) (HPC) 100 % of control | dose: 200.0 mg/kg/injection, vehicle: Klucel (hydroxypropylcellulose) (HPC) 102 % of control | dose: 400.0 mg/kg/injection, vehicle: Klucel (hydroxypropylcellulose) (HPC) 98 % of control
